According to patent publication US20140113904A1, “TREATMENT OF CANCER WITH TOR KINASE INHIBITORS” (SIGNAL PHARMACEUTICALS, LLC, priority 2012, published 2014):

Experiments:
GSK3β (S9) = experiment: Phospho-GSK3Beta (S9) in PC-3 cell lysates, MSD (Compound 2); assay type: cell-based; details: Homo sapiens; PC-3, 1 hour; read-out: mTORC2 GSK3β (S9) IC50
Experimental: The direct substrate for mTORC1 was 4E-BP1(T46) and the indirect downstream substrate was S6RP (S235/S236). The direct substrate for mTORC2 was AKT (S473) and the indirect downstream substrates measured were GSK3β(S9) and PRAS40 (T246). Additionally, the phosphorylation status of AKT (T308), a phosphorylation site for PDK1, was monitored. Concentration-response curves were plotted and IC50 values determined. Cells were plated in 96-well flat bottom plates at the required density (PC-3 cells/well) and the cells were allowed to equilibrate at 37° C., 5% CO2 overnight. […] After the incubation period, the culture media was removed carefully with an aspirator. The plate was placed on ice and 50 μL of 1× Tris Lysis Buffer was added to each well. The plate was placed on a shaker at 4° C. for 1 hour to lyse the cells. At that point, the plate was either frozen at -80° C. for later analysis or immediately assayed for phosphoproteins as described below. To monitor interassay variability, a reference standard was included in the assay for PC-3 cells and the coefficient of variation for assay of […]) was 9.3% (n=50) and for assay of p-AKT (S473) was 28.6% (n=50). The assay plate was incubated with 150 μL of MSD Blocking Buffer for 1 hour with shaking at room temperature. […] Then 150 μL of 1×MSD Read Buffer T was added to each well. The plate was read on the SECTOR Imager plate reader.

GSK3β(S9) = experiment: Phospho-GSK3β(S9) in PC3 cell lysates, Luminex multiplex; assay type: cell-based, human; details: PC3, 1 hour exposure; read-out: p-GSK3β (S9) IC50
Source text: The direct substrate for TORC1 was 4E-BP 1(T46) and indirect downstream substrate was S6RP(S235/S236). The direct substrate for TORC2 was Akt(S473) and indirect downstream substrates measured were GSK3β(S9) and PRAS40(T246). Additionally, the phosphorylation status of Akt(T308), a phosphorylation site for PDK1 was monitored.
The multiplex Luminex assay format differs from conventional enzyme-linked immunosorbent assay (ELISA) in that the multiplex capture antibody is attached to a polystyrene bead whereas the ELISA capture antibody is attached to the microplate well. The use of the suspension bead-based technology enables the multiplexing capabilities of the Luminex assays. The xMAP® technology uses 5.6 micron polystyrene microspheres, which are internally dyed with red and infrared fluorophores of differing intensities. Each bead is given a unique number, or bead region, allowing differentiation of one bead from another. Beads covalently bound to different specific antibodies can be mixed in the same assay, utilizing a 96-well microplate format. At the completion of the sandwich immunoassay, beads can be read, using the Luminex 100™ or Luminex 200 detection system, in single-file by dual lasers for classification and quantification of each analyte. […]

CD-31 = CD-31 immunohistochemistry in PC3 tumors (Compound 1); assay type: in vivo, SCID mice; details: 25 mg/kg oral QD for 6 days, 2 hours after last dose
Experimental: Two hours after the last dose of either vehicle, Compound 1, or rapamycin, the mice were euthanized and the tumors were dissected. The tumors were snap frozen in liquid nitrogen and processed for immunohistochemistry (IHC) and TUNEL.
Five to ten micron thick cryostat sections of tumor samples were used for IHC. The expression of a cell proliferation marker Ki-67 was evaluated by IHC using anti-Ki-67 antibody. Anti-CD-31 antibody was used to determine blood vessel density and is a measurement of tumor angiogenesis. Frozen sections were fixed in 4% paraformaldehyde for 10 minutes at room temperature, washed in PBS, blocked and permeabilized with normal goat serum and triton x-100. Sections were then incubated with primary antibody (overnight) followed by incubation with secondary antibody (60 minutes). […] The sections were visualized with a Nikon E800 microscope equipped with fluorescence detection equipment and a digital camera attached to a computer.
The tissues sections processed for apoptosis or immunostained for proliferating cells (Ki-67) or blood vessels were quantitated using Metamorph software. Using 20× objective, 5 different fields from each section, 2 to 4 sections from each tumor, and 3 to 4 tumors from each treatment group or control were used for quantitation. The area of interest was expressed as the percent threshold area of the total area.

IC50 (GSK3β (S9)) [nM]	IC50 (GSK3β(S9)) [nM]	Compound	CD-31 positive blood vessels vs vehicle (CD-31)
17		CCN1C(=O)CNc2ncc(-c3ccc(-c4nc[nH]n4)nc3C)nc21 [Compound 2, 1-ethyl-7-(2-methyl-6-(1H-1,2,4-triazol-3-yl)pyridin-3-yl)-3,4-dihydropyrazino[2,3-b]pyrazin-2(1H)-one]	
	230	CO[C@H]1CC[C@H](N2C(=O)CNc3ncc(-c4ccc(C(C)(C)O)nc4)nc32)CC1 [Compound 1, 7-(6-(2-hydroxypropan-2-yl)pyridin-3-yl)-1-((1r,4r)-4-methoxycyclohexyl)-3,4-dihydropyrazino-[2,3-b]pyrazin-2(1H)-one]	significantly (p<0.01) fewer
